# “Also recorded” adds a separate entry of the source. Like-named read-outs stand apart in the source and are kept apart here.
# Legend:
# [1] = Particle size and polydispersity index (Zetasizer Nano ZS); type: physicochemical; conditions: for PDI: Table 1, DOPE 40:20:38.5:1.5, Luc mRNA
# Procedure, shortened: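 Particle size and polydispersity index were measured by dynamic light scattering on a Zetasizer Nano ZS in 1×PBS. Zeta potential was measured in 15 mM PBS.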
# [2] = test system: luciferase (Luc) mRNA expression; assay: Expression of Luc, bioluminescence (total flux) after intravenous administration to mice; type: in vivo
# Procedure: In order to monitor how effectively various nanoparticle compositions deliver therapeutic and/or prophylactic agents to targeted cells, different nanoparticle compositions including a particular therapeutic and/or prophylactic agent (for example, a modified or naturally occurring RNA such as an mRNA) are prepared and administered to rodent populations. Mice are intravenously, intramuscularly, intraarterially, or intratumorally administered a single dose including a nanoparticle composition with a formulation such as those provided in Table 1. In some instances, mice may be made to inhale doses. Dose sizes may range from 0.001 mg/kg to 10 mg/kg, where 10 mg/kg describes a dose including 10 mg of a therapeutic and/or prophylactic agent in a nanoparticle composition for each 1 kg of body mass of the mouse. A control composition including PBS may also be employed.
# Upon administration of nanoparticle compositions to mice, dose delivery profiles, dose responses, and toxicity of particular formulations and doses thereof can be measured by enzyme-linked immunosorbent assays (ELISA), bioluminescent imaging, or other methods. For nanoparticle compositions including mRNA, time courses of protein expression can also be evaluated. Samples collected from the rodents for evaluation may include blood, sera, and tissue (for example, muscle tissue from the site of an intramuscular injection and internal tissue); sample collection may involve sacrifice of the animals.
# The efficacy of the nanoparticle compositions presented in Tables 1, la, 17-1, 19-1, 20-1 and 21-1 was evaluated with a bioluminescence study. Formulations were administered intravenously to mice (n=6) at a dosage of 0.5 mg/kg (mpk) and bioluminescence measured at 3, 6, and 24 hour time points. The standard MC3 formulation and a PBS control were evaluated for comparison.
# [3] = test system: hEPO mRNA expression; assay: Expression of hEPO after intravenous administration to rats; type: in vivo; conditions: for hEPO (pg/mL) 3 hours / hEPO (pg/mL) 6 hours / hEPO (pg/mL) 24 hours: Table 6, rats i.v. 0.2 or 0.5 mg/kg
# Procedure: PBS (phosphate buffered saline) is used as control.
# Formulations were prepared according to Table 5 and included mRNA encoding hEPO.
# […] After the 48 hour time point, livers and spleens were harvested and frozen.
# [4] = test system: rats; assay: Tolerability / toxicity in rats dosed i.v. with hEPO mRNA LNP; type: in vivo; conditions: 2 mg/kg dose
# [5] = test system: luciferase (Luc) mRNA expression; assay: Expression of Luc in different organs (liver, lung, spleen, femur) 6 hours after intravenous administration; type: in vivo; conditions: mice i.v. 0.5 mpk
# Procedure: The efficacy of the nanoparticle compositions presented in Tables 1, la, 17-1, 19-1, 20-1 and 21-1 was further evaluated by measuring the expression of modified luciferase in the liver, lung, spleen, and femur upon administration of a given composition. Formulations were administered intravenously to mice (n=3) at a dosage of 0.5 mpk and bioluminescence measured after 6 hours. The standard MC3 formulation and a PBS control were also tested.
# [6] = test system: luciferase (Luc) mRNA expression; assay: Luc expression (AUC) in CD-1 mice relative to MC3; type: in vivo; conditions: for Lipid/MC3 Luc CD-1 (mice): Luc expression relative to MC3, CD-1 mice
# Procedure, shortened: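 CD-1 mice dosed at 0.5 mpk with nanoparticle compositions carrying luciferase mRNA; total light flux acquired by whole-body luminescent imaging 6 h after administration. Expression referenced to MC3-containing composition.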
# [7] = test system: LDLr mRNA / Luc expression; assay: Expression (AUC) in LDLr−/− mice relative to KL22; type: in vivo; conditions: Table 7b
# [8] = Lipid levels (clearance) in liver and spleen 48 hours after administration; type: in vivo, rats; conditions: for concentration at 48 h: Sprague-Dawley, rat, intravenous
# Procedure: Formulations were administered intravenously to rats (n=3 or 6) at a dosage of 0.2 mg/kg or 0.5 mg/kg (mpk) and hEPO levels measured at 3, 6, and 24 hour time points. After the 48 hour time point, livers and spleens were harvested and frozen.
# The amount of lipid in the liver and spleen 48 hours after administration of a nanoparticle composition was also measured. […] In contrast, approximately 60% of doses including MC3 or Compound 22 remained in the liver after 48 hours. Less than 3% of the dose remained in the spleen for each composition tested.
# [9] = test system: GFP mRNA expression in liver cells; assay: Mouse liver immunohistochemistry (IHC) of GFP after GFP mRNA LNP; type: in vivo, CD-1 mouse; LDLR knockout mouse; conditions: i.v. 0.5 mpk; MC3: CD-1 mouse, 6h; Compound 4: LDLR knockout mouse, 8h
# Procedure: FIG. 11 is a pair of images comparing the results of a mouse liver immunohistochemistry (IHC) using mRNA expressing green fluorescent protein (GFP) after administration of nanoparticle compositions containing Compound 4 and MC3.
# FIG. 16 is a graph showing GFP levels in the livers of LDLR knockout mice at 30 min to 24 h after intravenous administration of an eGFP RNA in a lipid composition containing Compound 4. The liver GFP levels were determined via IHC. The square markers represent the number of GFP positive cells following administration of a dose of 0.1 mpk of the composition. The circular markers represent the number of GFP positive cells following administration of a dose of 0.5 mpk of the composition.
# [10] = test system: hEPO mRNA expression; assay: Expression of hEPO in mice (CD-1); type: in vivo, CD-1 mice; conditions: hEPO expression relative to MC3, CD-1 mice
# Source text: FIG. 12 is a set of graphs illustrating hEPO expression levels in CD-1 mice dosed with compounds of the disclosure, compared to MC3. PBS is used as control. […] In graphs A-C numbers 1-14 refer to compositions containing the following: 1: Compound 73, 2: Compound 80, 3: Compound 70; 4: Compound 81; 5: Compound 69; 6: Compound 82; 7: Compound 83; 8: Compound 62; 9: Compound 84; 10: Compound 85; 11: Compound 86; 12: Compound 87; 13: MC3; 14: PBS.
# FIG. 13 is a graph showing hEPO levels (pg/mL) in CD-1 mice up to −25 h after administration of a nanoparticle composition containing compounds of the disclosure, compared to a composition containing MC3. Numbers 1-13 refer to compositions containing the following: 1: Compound 73, 2: Compound 80, 3: Compound 70; 4: Compound 81; 5: Compound 69; 6: Compound 82; 7: Compound 83; 8: Compound 62; 9: Compound 84; 10: Compound 85; 11: Compound 86; 12: Compound 87; 13: MC3. […]
structure (smiles),measurement,setting,value
"CCCCCCCCCCCCN(CCCCCCCCCCCC)CCN(CCCCCCCCCCCC)CCN1CCN(CCN(CCCCCCCCC)CCCCCCCCC)CC1 [Compound 23, N^1-(2-(4-(2-(Dinonylamino)ethyl)piperazin-1-yl)ethyl)-N^1,N^2,N^2 tridodecylethane-1,2-diamine]",PDI,[1],0.058
same,Luc expression in mice compared with MC3 (Table 7a),"[2]; mice, in words",several fold higher
same,hEPO (pg/mL) 3 hours,[3]; DOPE formulation of Table 5,249213 pg/mL
same,hEPO (pg/mL) 6 hours,[3]; DOPE formulation of Table 5,275440 pg/mL
same,hEPO (pg/mL) 24 hours,[3]; DOPE formulation of Table 5,120104 pg/mL
same,hEPO (pg/mL) 3 hours,[3]; DSPC formulation of Table 5,86627 pg/mL
same,hEPO (pg/mL) 6 hours,[3]; DSPC formulation of Table 5,71360 pg/mL
same,hEPO (pg/mL) 24 hours,[3]; DSPC formulation of Table 5,29008 pg/mL
same,Tolerability / toxicity in rats (FIG. 8),[4],toxic
"CCCCCCCCCCCCCCN(CCCCCCCCCCCCCC)CCN1CCN(CCN(CCCCCCCCC)CCN(CCCCCCCCC)CCCCCCCCC)CC1 [Compound 20, N^1-(2-(4-(2-(Ditetradecylamino)ethyl)piperazin-1-yl)ethyl)-N^1,N^2,N^2-trinonylethane-1,2-diamine]",PDI,[1],0.150
same,"Total flux in organs, comparison in words over the organs of the table named",[5],highest total flux
same,Lipid/MC3 Luc CD-1 (mice),[6],5.0
"CCCCC/C=C\C/C=C\CCCCCCCCC1(CCCCCCCC/C=C\C/C=C\CCCCC)CC(OC(=O)CCCN(C)C)C1 [Compound 21-2, 3,3-Di((9Z,12Z)-octadeca-9,12-dien-1-yl)cyclobutyl 4-(dimethylamino)butanoate]","Total flux in organs, comparison in words over the organs of the table named",[5],lowest expression in each organ
"CCCCCC=CCC=CCCCCCCCCC(CCCCCCCCC=CCC=CCCCCC)OC(=O)CCCN(C)C (centres unmarked) [MC3, heptatriaconta-6,9,28,31-tetraen-19-yl 4-(dimethylamino)butanoate, reference compound]",Size (nm),[1]; Table 20-1,84.0 nm
same,"Total flux (Luc expression), comparison in words over the time points of the table named","[2]; mice i.v. 0.5 mg/kg, 3, 6, 24 hours, 0.5 mg/kg",highest total flux; also recorded: highest luciferase expression
same,"Total flux in organs, comparison in words over the organs of the table named",[5]; 0.5 mg/kg,highest total flux; also recorded: highest expression in each organ
same,"hEPO expression at each time point, comparison in words (Table 6)","[3]; rats i.v., 3, 6, 24 hours",highest hEPO expression
same,Lipid/MC3 Luc CD-1 (mice),[6],1
same,Lipid/MC3 AUC CD-1 mice 0.5 mpk,"[6]; Table 7b, Luc expression, CD-1 mice, 0.5 mpk",1
same,"Lipid/KL22 AUC LDLr−/− mice 0.5 mpk, LDLr",[7],0.15
same,% dose remaining Rat liver (48 h),[8],43.11%
same,"GFP protein expression in liver cell types (IHC, FIG. 11)",[9],observed in both hepatocytes and Kupffer cells
"CCCCCCCCCCCCN(CCCCCCCCCCCC)CCN(CCCCCCCCCCCC)CCN1CCN(CCN(CCCCCCCCCCCC)CCCCCCCCCCCC)CC1 [KL22, N1-[2-(didodecylamino)ethyl]-N1,N4,N4-tridodecyl-1,4-piperazinediethanamine, reference compound]",hEPO expression in rats (FIG. 8),"[3]; rats, 2 mpk, i.v. (Graph A), in words",do not express hEPO in rats
same,"Lipid/KL22 AUC LDLr−/− mice 0.5 mpk, LDLr",[7],1
same,Tolerability / toxicity in rats (FIG. 8),[4],toxic
"CCCCC/C=C\C/C=C\CCCCCCCCC1(CCCCCCCC/C=C\C/C=C\CCCCC)CCC(OC(=O)CCCN(C)C)C1 (centres unmarked) [Compound 21-4, 3,3-Di((9Z,12Z)-octadeca-9,12-dien-1-yl)cyclopentyl 4-(dimethylamino)butanoate]","Total flux in organs, comparison in words over the organs of the table named",[5],lowest expression in each organ
CCCCCCCCCCCCN(CCCCCCCCCCCC)CCN(CCCCCCCCCCCC)CCN1CCN(CCN(CCCCCCCCC)CCCCCCCCC)CC1 [23 (DOPE)],Lipid/MC3 hEPO S.D. (rats),"[3]; hEPO expression relative to MC3, S.D. rats, intravenous",0.21
same,Lipid/MC3 hEPO CD-1 (mice),[10],2.4
same,concentration at 48 h,"[8]; liver, 48 hours after administration, read-out: Lipid in liver",32900 ng/g
same,concentration at 48 h,"[8]; spleen, 48 hours after administration, read-out: Lipid in spleen",26100 ng/g
same,% remaining dose in liver,"[8]; liver, 48 hours after administration",51.4%
same,% remaining dose in spleen,"[8]; spleen, 48 hours after administration",2.72%
"CCCCCCCCCN(CCCCCCCCC)CCC1CCN(C(=O)CN(CCCCCCCCC)CCN(CCCCCCCCC)CCCCCCCCC)CC1 [Compound 49, 2-((2-(Dinonylamino)ethyl)(nonyl)amino)-1-(4-(2-(dinonylamino)ethyl)piperidin-1-yl)ethan-1-one]",PDI,[1],0.200
same,Lipid/MC3 Luc CD-1 (mice),[6],5.23
same,% dose remaining Rat liver (48 h),[8],38.45%

# Source: patent publication US12396961B2, “Compounds and compositions for intracellular delivery of agents” (ModernaTX, Inc., priority 2015, dated 2025)
